Here are results for one compound from publication PMC5650337, “A peptidomimetic with a chiral switch is an inhibitor of epidermal growth factor receptor heterodimerization” (Oncotarget, 2017).

One assay deals with T1, EGFR (Homo sapiens, UniProt P00533).
T1 construct: Extracellular domains of proteins HER2, EGFR, HER3, and HER4 purchased from Leinco Technologies; purchased Leinco Technologies (St. Louis, MO)
In words: Surface plasmon resonance analysis. The settings on record: data not shown. The format is binding. On the procedure: (§1) Surface plasmon resonance analysis was performed using GE X100. Extracellular domains of proteins HER2, EGFR, HER3, and HER4 purchased from Leinco Technologies (St. Louis, MO). […] Compound 18 and controls were used as analytes. Compound 18 at different concentrations (0 to 200 µM) was passed through an SPR chip, and binding kinetics were analyzed for each of the EGFR bindings. A blank subtracted sensorgram for compound 18 was represented.

Assay [1] has as its target T2, HER2 ECD (domains I to IV) (Homo sapiens, UniProt P04626).
T2 construct: Extracellular domains of proteins HER2, EGFR, HER3, and HER4 purchased from Leinco Technologies; purchased Leinco Technologies (St. Louis, MO)
In words: Surface plasmon resonance analysis. Type of assay: binding. The method, then:
as §1

A further assay addresses T3, HER3 (Homo sapiens, UniProt P21860).
T3 construct: Extracellular domains of proteins HER2, EGFR, HER3, and HER4 purchased from Leinco Technologies; purchased Leinco Technologies (St. Louis, MO)
The experiment in a line: Surface plasmon resonance analysis. Type of assay: binding. The settings on record: data not shown. On the procedure: as §1

A further assay addresses T4, HER4 (Homo sapiens, UniProt Q15303).
T4 construct: Extracellular domains of proteins HER2, EGFR, HER3, and HER4 purchased from Leinco Technologies; purchased Leinco Technologies (St. Louis, MO)
In words: Surface plasmon resonance analysis. Conditions: data not shown. The format is binding. On the procedure:
as §1

A further assay deals with domain IV of HER2 (Homo sapiens, UniProt P04626). The experiment in a line: Surface plasmon resonance analysis. The format is binding. Conditions: protein immobilized on CM5 chip. The method, then:
as §1

The subject of assay [2] is phosphorylated HER2 in BT-474 cells. In words: Western blot of phosphorylated HER2. Type of assay: cell-based. Conditions: 0.5 and 1 µM. On the procedure:
(§2) BT-474, Calu-3, and SKOV-3 cells were treated with compounds at 1 µM and lapatinib (positive control) at 0.07 µM. Cells without any treatment and cells treated with control compound were employed as negative controls in these studies. Cells were incubated for 36 h, washed and trypsinized. The cell lysate was prepared using cell lysis buffer containing protease inhibitor and phosphatase inhibitor. The protein concentration in each sample was determined using Bradford’s assay. 40 μg of protein from each sample was loaded on Novex® 4–20% tris-glycine gels and western blot analysis was carried out as described in our previous publication. Antibodies for the detection of total HER2 protein (t-HER2) and phosphorylated HER2 protein (p-HER2) were used at 1:3000 dilutions. After addition of the substrate and enhancer solutions from a Super Signal-enhanced chemiluminescence kit (Pierce, Rockford, IL) to the membrane, the images were captured using C-Digit Blot Scanner (LI-COR Biotechnology, Lincoln, NE). A representative Western blot image was used for the final presentation.

Assay [3] relates to phosphorylated HER2 in Calu-3 cells. In words: Western blot of phosphorylated HER2. The format is cell-based. The method, then:
as §2

For assay [4], the target named is T5, EGFR:HER2 heterodimer in SKBR-3 cells (Homo sapiens, UniProt P04626).
T5 construct: we probed for HER2:EGFR dimers with PLA probes in SKBR-3 cells; host or cells: SKBR-3
In words: Proximity ligation assay (PLA). The format is cell-based. Conditions: 0.5 and 1 µM. On the procedure:
Proximity ligation assay was performed as described previously. […] Fixed cells were used for PLA assay. Cells were incubated with primary antibodies for 24 h and washed, and secondary antibodies PLA+ and PLA− were added. After incubation and washing, PLA detection reagent was added, and the cells were covered with a glass plate after mounting medium was added. Slides were viewed using an inverted microscope and a multiphoton microscope. Images were obtained at 40 and 60X.

Assay [5] deals with HER2 phosphorylation in tumor samples. In words: Western blot of xenograft tumor samples. The format is in vivo, athymic nude mice. Conditions: treated tumors compared to control. On the procedure: Western blot and PLA assay were carried out on tumor sections as described before. Immunoblot analysis was performed to evaluate the levels of total HER2 and phosphorylated HER2. Tumor sections were deparaffinized using xylene and rehydrated with decreasing concentrations of ethanol. Antigen retrieval on the microsections of the breast tumors was done in a steaming sodium citrate buffer (10 mM, 0.05% Tween-20, pH 6.0) for 5 min. The tumor sections were then used to analyze inhibition of HER2:HER3 dimerization using PLA.

Each structure is given as a SMILES string. Like-named read-outs stand apart in the source and are kept apart here. Where a SMILES comes first, the peptide text is derived from it.

T2 sequence (P04626 23-652 limits assumed): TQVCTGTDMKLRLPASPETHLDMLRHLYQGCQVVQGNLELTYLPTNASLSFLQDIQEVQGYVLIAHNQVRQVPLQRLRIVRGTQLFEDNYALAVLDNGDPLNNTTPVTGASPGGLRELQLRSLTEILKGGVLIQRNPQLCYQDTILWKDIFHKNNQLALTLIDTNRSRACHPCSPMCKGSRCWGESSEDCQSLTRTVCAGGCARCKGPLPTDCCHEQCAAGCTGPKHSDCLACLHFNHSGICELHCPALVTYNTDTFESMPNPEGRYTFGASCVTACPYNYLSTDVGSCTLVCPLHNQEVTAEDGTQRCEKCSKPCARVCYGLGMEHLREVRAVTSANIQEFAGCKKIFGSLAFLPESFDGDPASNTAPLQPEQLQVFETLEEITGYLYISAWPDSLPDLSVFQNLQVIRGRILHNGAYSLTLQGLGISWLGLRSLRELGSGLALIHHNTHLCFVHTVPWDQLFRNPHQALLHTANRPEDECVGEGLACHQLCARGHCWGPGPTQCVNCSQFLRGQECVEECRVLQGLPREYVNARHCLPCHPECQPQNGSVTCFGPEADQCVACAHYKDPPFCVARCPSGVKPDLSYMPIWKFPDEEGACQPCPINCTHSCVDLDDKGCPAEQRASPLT
T4 sequence (Q15303 26-651 limits assumed): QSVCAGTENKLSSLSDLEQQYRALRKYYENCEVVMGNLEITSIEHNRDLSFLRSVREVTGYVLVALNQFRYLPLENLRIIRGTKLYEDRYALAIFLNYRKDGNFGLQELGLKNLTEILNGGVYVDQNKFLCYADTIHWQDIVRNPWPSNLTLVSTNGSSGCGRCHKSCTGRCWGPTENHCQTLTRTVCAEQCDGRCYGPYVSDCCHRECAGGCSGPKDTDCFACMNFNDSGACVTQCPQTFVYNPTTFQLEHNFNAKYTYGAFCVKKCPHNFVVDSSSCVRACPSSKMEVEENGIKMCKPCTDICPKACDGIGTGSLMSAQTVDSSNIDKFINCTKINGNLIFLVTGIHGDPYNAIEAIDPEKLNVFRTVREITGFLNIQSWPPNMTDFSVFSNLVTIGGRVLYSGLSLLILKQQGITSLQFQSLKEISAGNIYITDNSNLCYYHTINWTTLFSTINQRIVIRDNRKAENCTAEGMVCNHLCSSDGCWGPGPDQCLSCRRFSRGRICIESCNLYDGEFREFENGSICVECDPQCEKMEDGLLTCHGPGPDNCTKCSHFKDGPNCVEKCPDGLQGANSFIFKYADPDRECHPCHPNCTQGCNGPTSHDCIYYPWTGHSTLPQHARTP
T5 sequence (P04626 23-1255, one chain of several): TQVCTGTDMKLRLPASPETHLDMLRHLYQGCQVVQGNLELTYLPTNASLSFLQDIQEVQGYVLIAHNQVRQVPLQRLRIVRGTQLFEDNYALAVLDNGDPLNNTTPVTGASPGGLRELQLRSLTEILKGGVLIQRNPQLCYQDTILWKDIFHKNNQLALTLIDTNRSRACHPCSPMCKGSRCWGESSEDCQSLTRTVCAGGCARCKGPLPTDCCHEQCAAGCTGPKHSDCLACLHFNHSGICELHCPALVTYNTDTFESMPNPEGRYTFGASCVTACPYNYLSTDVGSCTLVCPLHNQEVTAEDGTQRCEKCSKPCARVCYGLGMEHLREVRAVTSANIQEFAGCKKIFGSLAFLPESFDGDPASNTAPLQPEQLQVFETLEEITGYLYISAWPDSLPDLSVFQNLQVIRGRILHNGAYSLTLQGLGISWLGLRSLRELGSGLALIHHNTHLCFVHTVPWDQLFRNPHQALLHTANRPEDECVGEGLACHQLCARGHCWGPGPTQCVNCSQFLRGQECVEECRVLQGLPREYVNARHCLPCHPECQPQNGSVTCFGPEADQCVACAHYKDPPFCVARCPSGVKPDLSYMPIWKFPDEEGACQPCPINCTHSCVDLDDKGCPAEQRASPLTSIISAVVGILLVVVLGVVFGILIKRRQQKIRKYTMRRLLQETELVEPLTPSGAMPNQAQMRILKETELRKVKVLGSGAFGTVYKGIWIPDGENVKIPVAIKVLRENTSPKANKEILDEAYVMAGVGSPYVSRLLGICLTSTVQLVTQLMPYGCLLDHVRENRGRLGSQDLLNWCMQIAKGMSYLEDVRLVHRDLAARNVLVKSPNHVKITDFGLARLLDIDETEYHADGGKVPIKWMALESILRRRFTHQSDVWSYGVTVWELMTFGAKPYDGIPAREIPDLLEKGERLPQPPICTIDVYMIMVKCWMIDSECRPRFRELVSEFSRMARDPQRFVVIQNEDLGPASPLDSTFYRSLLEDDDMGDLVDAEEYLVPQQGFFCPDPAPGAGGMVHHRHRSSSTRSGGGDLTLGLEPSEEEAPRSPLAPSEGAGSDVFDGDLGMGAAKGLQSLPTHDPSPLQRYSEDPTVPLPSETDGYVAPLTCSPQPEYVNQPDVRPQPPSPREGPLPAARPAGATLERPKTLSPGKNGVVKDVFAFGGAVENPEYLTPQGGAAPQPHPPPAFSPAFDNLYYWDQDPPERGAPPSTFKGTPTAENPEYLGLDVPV
T3 sequence (P21860 20-643 limits assumed): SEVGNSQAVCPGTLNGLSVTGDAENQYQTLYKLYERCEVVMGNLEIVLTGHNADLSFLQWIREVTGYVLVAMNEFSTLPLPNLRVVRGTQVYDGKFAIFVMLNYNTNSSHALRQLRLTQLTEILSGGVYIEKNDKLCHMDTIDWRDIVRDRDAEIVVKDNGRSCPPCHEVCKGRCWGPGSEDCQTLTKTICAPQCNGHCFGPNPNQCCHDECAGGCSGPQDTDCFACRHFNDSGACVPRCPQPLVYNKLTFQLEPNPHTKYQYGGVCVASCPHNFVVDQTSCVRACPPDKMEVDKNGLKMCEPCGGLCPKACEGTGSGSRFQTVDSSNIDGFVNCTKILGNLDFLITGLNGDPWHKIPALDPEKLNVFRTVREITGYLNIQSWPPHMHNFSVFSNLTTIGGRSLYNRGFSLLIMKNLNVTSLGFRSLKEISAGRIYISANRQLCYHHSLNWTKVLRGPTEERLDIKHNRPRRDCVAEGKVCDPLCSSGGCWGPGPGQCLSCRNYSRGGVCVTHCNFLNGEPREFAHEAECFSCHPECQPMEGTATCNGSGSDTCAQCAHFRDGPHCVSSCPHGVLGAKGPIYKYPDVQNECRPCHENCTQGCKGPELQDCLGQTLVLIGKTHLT
T1 sequence (P00533 25-645 limits assumed): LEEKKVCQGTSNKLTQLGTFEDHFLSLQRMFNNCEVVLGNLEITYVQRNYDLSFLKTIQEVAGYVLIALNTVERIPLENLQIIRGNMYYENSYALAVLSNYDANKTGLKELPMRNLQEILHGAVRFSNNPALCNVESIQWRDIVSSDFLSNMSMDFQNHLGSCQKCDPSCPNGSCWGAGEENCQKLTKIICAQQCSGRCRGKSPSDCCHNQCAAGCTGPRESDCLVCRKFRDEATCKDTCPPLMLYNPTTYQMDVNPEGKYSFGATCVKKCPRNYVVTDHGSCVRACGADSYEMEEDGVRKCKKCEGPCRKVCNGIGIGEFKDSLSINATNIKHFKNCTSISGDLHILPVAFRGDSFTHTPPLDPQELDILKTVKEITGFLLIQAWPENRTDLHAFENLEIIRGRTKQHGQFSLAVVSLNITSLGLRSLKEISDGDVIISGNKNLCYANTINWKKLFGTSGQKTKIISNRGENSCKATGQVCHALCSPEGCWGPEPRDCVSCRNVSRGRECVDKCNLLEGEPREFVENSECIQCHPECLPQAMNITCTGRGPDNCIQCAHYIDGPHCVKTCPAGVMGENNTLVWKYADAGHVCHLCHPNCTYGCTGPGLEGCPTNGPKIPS
Sequence of domain IV of HER2 (P04626 511-652 limits assumed): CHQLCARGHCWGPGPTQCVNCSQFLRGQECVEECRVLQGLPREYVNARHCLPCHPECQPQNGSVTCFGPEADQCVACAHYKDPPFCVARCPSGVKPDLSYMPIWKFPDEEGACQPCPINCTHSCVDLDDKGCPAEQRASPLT

`N=C(N)NCCC[C@@H]1NC(=O)[C@H]2CCCN2C(=O)[C@@H]2CCCN2C(=O)[C@H](CCCNC(=N)N)NC(=O)C[C@H](c2cccc3ccccc23)NC(=O)[C@H](Cc2ccccc2)NC(=O)[C@H](CC(=O)O)NC(=O)[C@H](CC(=O)O)NC(=O)[C@H](Cc2ccccc2)NC(=O)C[C@H](c2cccc3ccccc23)NC1=O` [compound 18, Cyclo(1,10)P^1p^2R^3(R-Anapa)^4F^5D^6D^7F^8(R-Anapa)^9R^10] (HELM PEPTIDE1{P.[dP].R.[O=C(C[C@@H](N[*:1])c1cccc2ccccc12)[*:2]].F.D.D.F.[O=C(C[C@@H](N[*:1])c1cccc2ccccc12)[*:2]].R}$PEPTIDE1,PEPTIDE1,1:R1-10:R2$$$V2.0): the “SPR binding to EGFR” value on EGFR is on record as “did not indicate any significant change in response”. In assay [1] (SPR, 1:1 binding Langmuir fit), this compound gave a koff of 5.97 s⁻¹. This compound gave a kon in assay [1] (SPR, 1:1 binding Langmuir fit) of 4.76e+07 M⁻¹ s⁻¹. Further, the Kd in [1] (calculated from kon and koff) is 125 nM. In assay [1] (protein immobilized on CM5 chip, substance as analyte), the “SPR binding to HER2 ECD” value was “concentration-dependent binding”. Also, the “SPR binding to HER3” value at HER3 was “did not indicate any significant change in response”. At HER4, the “SPR binding to HER4” value was “did not indicate any significant change in response”. Moreover, the “SPR binding to HER2 domain IV” value at domain IV of HER2 is recorded as “concentration-dependent binding”. Also, the “Phosphorylation of HER2 (Western blot)” value in [2] and in assay [3] was “decreases the phosphorylation of HER2 in a concentration-dependent manner” throughout. For the same compound, the “Inhibition of EGFR:HER2 heterodimerization (PLA)” value in assay [4] is “inhibits both EGFR:HER2 and HER2:HER3 dimerization”. Also, in [5], the “HER2 phosphorylation in tumor samples (Western blot)” value is “decrease in HER2 phosphorylation”. The IC50 with SKBR-3 cells (read-out: Antiproliferative activity (IC50 µM) SKBR-3 cells, Table 2, compound 18 and diastereoisomers) is 0.194 ± 0.046 µM; in the assay on SKBR-3 cells (read-out: IC50 SKBR-3(+), HER2-overexpressing breast cancer cells, 72 h) it was 0.194 ± 0.046 µM.
